In the supplement of paper PMC10307832:

Experiments:
Assay in all cases: relative viability (nuclei count vs DMSO), 5 days (fraction); higher = more cells survive
A-427 = system: A-427
How it was run: (§1)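 Dosing by pin tool came one day after lung cancer cell lines were seeded in 1536-well plates, using either one drug or a fixed anchor-drug dose plus five library-drug doses (not always all listed) in √10 steps. After 5 days, nuclei were counted on 4× images. Relative viability is treated-well nuclei count divided by vehicle-well nuclei count, and values are medians of duplicate plates.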

ABC-1 = system: ABC-1
How it was run: as §1

COR-L23 = system: COR-L23
How it was run: as §1

EMC-BAC-2 = system: EMC-BAC-2
How it was run: as §1

HARA = system: HARA
How it was run: as §1

HOP-62 = system: HOP-62
How it was run: as §1

LK-2 = system: LK-2
How it was run: as §1

LXF-289 = system: LXF-289
How it was run: as §1

NCI-H1793 = system: NCI-H1793
How it was run: as §1

NCI-H1944 = system: NCI-H1944
How it was run: as §1

NCI-H1993 = system: NCI-H1993
How it was run: as §1

NCI-H2009 = system: NCI-H2009
How it was run: as §1

NCI-H2170 = system: NCI-H2170
How it was run: as §1

NCI-H2228 = system: NCI-H2228
How it was run: as §1

NCI-H3122 = system: NCI-H3122
How it was run: as §1

NCI-H596 = system: NCI-H596
How it was run: as §1

NCI-H727 = system: NCI-H727
How it was run: as §1

PC-3 [JPC-3] = system: PC-3 [JPC-3]
How it was run: as §1

SK-LU-1 = system: SK-LU-1
How it was run: as §1

SK-MES-1 = system: SK-MES-1
How it was run: as §1

SW 1573 = system: SW 1573
How it was run: as §1

SW 900 = system: SW 900
How it was run: as §1

C=C1C(=O)O[C@@H](CCCCCCCC)[C@@H]1C(=O)O [C-75] + COc1cc2c(Oc3ccc(NC(=O)C4(C(=O)Nc5ccc(F)cc5)CC4)cc3F)ccnc2cc1OCCCN1CCOCC1 [Foretinib] (partner 0.25 µM)
relative viability (A-427; first compound 0.08 µM): 0.898 | relative viability (A-427; first compound 0.253 µM): 1.18 | relative viability (A-427; first compound 0.8 µM): 0.969 | relative viability (A-427; first compound 2.53 µM): 1.03 | relative viability (A-427; first compound 8 µM): 0.992 | relative viability (ABC-1; first compound 0.08 µM): 1.16 | relative viability (ABC-1; first compound 0.253 µM): 1.24 | relative viability (ABC-1; first compound 0.8 µM): 0.913 | relative viability (ABC-1; first compound 2.53 µM): 1.18 | relative viability (ABC-1; first compound 8 µM): 0.81 | relative viability (COR-L23; first compound 0.08 µM): 0.903 | relative viability (COR-L23; first compound 0.253 µM): 1 | relative viability (COR-L23; first compound 0.8 µM): 0.856 | relative viability (COR-L23; first compound 2.53 µM): 0.9 | relative viability (COR-L23; first compound 8 µM): 0.965 | relative viability (EMC-BAC-2; first compound 0.08 µM): 1.02 | relative viability (EMC-BAC-2; first compound 0.253 µM): 1.1 | relative viability (EMC-BAC-2; first compound 0.8 µM): 0.99 | relative viability (EMC-BAC-2; first compound 2.53 µM): 0.904 | relative viability (EMC-BAC-2; first compound 8 µM): 1.05 | relative viability (HARA; first compound 0.08 µM): 0.822 | relative viability (HARA; first compound 0.253 µM): 0.93 | relative viability (HARA; first compound 0.8 µM): 0.819 | relative viability (HARA; first compound 2.53 µM): 0.769 | relative viability (HARA; first compound 8 µM): 0.979 | relative viability (HOP-62; first compound 0.08 µM): 1.1 | relative viability (HOP-62; first compound 0.253 µM): 1.06 | relative viability (HOP-62; first compound 0.8 µM): 1.14 | relative viability (HOP-62; first compound 2.53 µM): 0.966 | relative viability (HOP-62; first compound 8 µM): 1.09 | relative viability (LK-2; first compound 0.08 µM): 0.944 | relative viability (LK-2; first compound 0.253 µM): 1.23 | relative viability (LK-2; first compound 0.8 µM): 1.15 | relative viability (LK-2; first compound 2.53 µM): 1.35 | relative viability (LK-2; first compound 8 µM): 1.06 | relative viability (LXF-289; first compound 0.08 µM): 0.949 | relative viability (LXF-289; first compound 0.253 µM): 0.965 | relative viability (LXF-289; first compound 0.8 µM): 0.932 | relative viability (LXF-289; first compound 2.53 µM): 0.654 | relative viability (LXF-289; first compound 8 µM): 0.948 | relative viability (NCI-H1793; first compound 0.08 µM): 0.572 | relative viability (NCI-H1793; first compound 0.253 µM): 0.721 | relative viability (NCI-H1793; first compound 0.8 µM): 0.569 | relative viability (NCI-H1793; first compound 2.53 µM): 0.46 | relative viability (NCI-H1793; first compound 8 µM): 0.658 | relative viability (NCI-H1944; first compound 0.08 µM): 0.899 | relative viability (NCI-H1944; first compound 0.253 µM): 0.756 | relative viability (NCI-H1944; first compound 0.8 µM): 0.829 | relative viability (NCI-H1944; first compound 8 µM): 0.834 | relative viability (NCI-H1993; first compound 0.08 µM): 0.898 | relative viability (NCI-H1993; first compound 0.253 µM): 0.782 | relative viability (NCI-H1993; first compound 0.8 µM): 0.851 | relative viability (NCI-H1993; first compound 2.53 µM): 0.786 | relative viability (NCI-H1993; first compound 8 µM): 0.88 | relative viability (NCI-H2009; first compound 0.08 µM): 1.21 | relative viability (NCI-H2009; first compound 0.253 µM): 1.2 | relative viability (NCI-H2009; first compound 0.8 µM): 1.12 | relative viability (NCI-H2009; first compound 2.53 µM): 1.13 | relative viability (NCI-H2009; first compound 8 µM): 1.04 | relative viability (NCI-H2170; first compound 0.08 µM): 1.06 | relative viability (NCI-H2170; first compound 0.253 µM): 1.01 | relative viability (NCI-H2170; first compound 0.8 µM): 0.987 | relative viability (NCI-H2170; first compound 2.53 µM): 0.591 | relative viability (NCI-H2170; first compound 8 µM): 0.986 | relative viability (NCI-H2228; first compound 0.08 µM): 0.803 | relative viability (NCI-H2228; first compound 0.253 µM): 0.919 | relative viability (NCI-H2228; first compound 0.8 µM): 0.85 | relative viability (NCI-H2228; first compound 2.53 µM): 0.839 | relative viability (NCI-H2228; first compound 8 µM): 0.863 | relative viability (NCI-H3122; first compound 0.08 µM): 0.966 | relative viability (NCI-H3122; first compound 0.253 µM): 0.848 | relative viability (NCI-H3122; first compound 0.8 µM): 0.936 | relative viability (NCI-H3122; first compound 2.53 µM): 0.952 | relative viability (NCI-H3122; first compound 8 µM): 0.983 | relative viability (NCI-H596; first compound 0.08 µM): 0.878 | relative viability (NCI-H596; first compound 0.253 µM): 1.01 | relative viability (NCI-H596; first compound 0.8 µM): 0.871 | relative viability (NCI-H596; first compound 2.53 µM): 1 | relative viability (NCI-H596; first compound 8 µM): 0.869 | relative viability (NCI-H727; first compound 0.08 µM): 0.796 | relative viability (NCI-H727; first compound 0.253 µM): 1.33 | relative viability (NCI-H727; first compound 0.8 µM): 0.695 | relative viability (NCI-H727; first compound 8 µM): 0.917 | relative viability (PC-3 [JPC-3]; first compound 0.08 µM): 1.05 | relative viability (PC-3 [JPC-3]; first compound 0.253 µM): 1.02 | relative viability (PC-3 [JPC-3]; first compound 0.8 µM): 1.06 | relative viability (PC-3 [JPC-3]; first compound 2.53 µM): 1.06 | relative viability (PC-3 [JPC-3]; first compound 8 µM): 1.2 | relative viability (SK-LU-1; first compound 0.08 µM): 0.794 | relative viability (SK-LU-1; first compound 0.253 µM): 0.721 | relative viability (SK-LU-1; first compound 0.8 µM): 0.881 | relative viability (SK-LU-1; first compound 2.53 µM): 0.736 | relative viability (SK-LU-1; first compound 8 µM): 0.766 | relative viability (SK-MES-1; first compound 0.08 µM): 1.06 | relative viability (SK-MES-1; first compound 0.253 µM): 0.773 | relative viability (SK-MES-1; first compound 0.8 µM): 0.978 | relative viability (SK-MES-1; first compound 8 µM): 0.925 | relative viability (SW 1573; first compound 0.08 µM): 1.03 | relative viability (SW 1573; first compound 0.253 µM): 0.943 | relative viability (SW 1573; first compound 0.8 µM): 0.951 | relative viability (SW 1573; first compound 2.53 µM): 0.74 | relative viability (SW 1573; first compound 8 µM): 0.731 | relative viability (SW 900; first compound 0.08 µM): 0.913 | relative viability (SW 900; first compound 0.253 µM): 1.07 | relative viability (SW 900; first compound 0.8 µM): 0.842 | relative viability (SW 900; first compound 2.53 µM): 0.945 | relative viability (SW 900; first compound 8 µM): 0.804
